Drawing on paper PMC4344604, “Synthesis and Biological Evaluation of Carbocyclic Analogues of Pachastrissamine” (Marine Drugs, 2015), this text covers IC50 for five compounds.

One assay has as its target T1, SphK1 (Homo sapiens, UniProt Q9NYA1).
T1 construct: commercial enzyme from BPS Bioscience; human given only for the docking structure 3VZB
In words: ADP-Glo kinase assay. The format is biochemical. Background: ADP-Glo first removes unused ATP, then detects ADP through luciferase.

The target in the next assay is T2, SphK2 (Homo sapiens, UniProt Q9NRA0).
T2 construct: commercial enzyme from BPS Bioscience
T2 sequence (Q9NRA0 1-654): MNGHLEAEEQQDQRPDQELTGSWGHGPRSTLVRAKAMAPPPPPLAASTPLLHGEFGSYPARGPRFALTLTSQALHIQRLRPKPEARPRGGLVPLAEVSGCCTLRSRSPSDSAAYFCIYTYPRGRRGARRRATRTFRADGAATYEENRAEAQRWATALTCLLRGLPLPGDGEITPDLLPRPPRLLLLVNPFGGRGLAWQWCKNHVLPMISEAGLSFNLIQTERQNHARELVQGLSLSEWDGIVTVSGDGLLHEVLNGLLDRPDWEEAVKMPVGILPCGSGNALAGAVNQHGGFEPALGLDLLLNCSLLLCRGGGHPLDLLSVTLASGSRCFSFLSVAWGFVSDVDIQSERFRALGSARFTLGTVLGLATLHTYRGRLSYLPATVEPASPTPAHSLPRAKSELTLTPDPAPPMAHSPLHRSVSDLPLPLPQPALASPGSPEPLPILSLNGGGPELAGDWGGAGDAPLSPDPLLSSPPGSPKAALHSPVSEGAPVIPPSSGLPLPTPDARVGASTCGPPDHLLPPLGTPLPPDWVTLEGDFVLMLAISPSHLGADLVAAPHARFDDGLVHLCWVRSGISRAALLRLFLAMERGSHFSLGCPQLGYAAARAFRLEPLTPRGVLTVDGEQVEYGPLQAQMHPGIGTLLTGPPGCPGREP
The assay can be described thus: ADP-Glo kinase assay. The format is biochemical. The source says:
ADP-Glo kinase assay on SphK2

Broadly, the IC50 is the concentration needed to halve the response being measured.

Like-named read-outs stand apart in the source and are kept apart here.

T1 sequence (Q9NYA1 whole entry): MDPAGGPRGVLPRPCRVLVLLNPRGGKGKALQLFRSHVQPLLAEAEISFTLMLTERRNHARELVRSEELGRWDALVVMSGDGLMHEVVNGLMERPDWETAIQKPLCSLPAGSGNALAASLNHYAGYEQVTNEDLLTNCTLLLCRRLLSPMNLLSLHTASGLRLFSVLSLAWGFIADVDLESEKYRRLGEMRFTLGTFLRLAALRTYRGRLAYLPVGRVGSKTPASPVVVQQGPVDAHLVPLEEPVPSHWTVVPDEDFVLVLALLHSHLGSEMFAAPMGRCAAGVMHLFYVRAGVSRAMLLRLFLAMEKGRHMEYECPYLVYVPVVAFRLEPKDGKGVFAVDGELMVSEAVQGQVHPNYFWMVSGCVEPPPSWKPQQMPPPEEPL

For the compound `CCCCCCCCCCCC[C@@H]1CC[C@H](N)[C@@H]1O` [4a, (1R,2S,5R)-2-Amino-5-dodecylcyclopentan-1-ol], the IC50 on SphK1 was 58.2 µM; against SphK2, above 100 µM.
Compound `CCCCCCCCCCCCC/C=C/[C@@H](O)[C@H](CO)N(C)C` [N,N-dimethylsphingosine] yielded a 50% inhibitory concentration (IC50) on SphK2 (1 µM sphingosine, 150 µM ATP, 5 mM MgCl2, pH 7.2, 1% DMSO, 1 h, room temperature) of 19.9 µM.
`CCCCCCCCCCCCCCCC[C@@H]1CC[C@H](N)[C@@H]1O` [4c, (1R,2S,5R)-2-Amino-5-hexadecylcyclopentan-1-ol]: the IC50 at SphK1 was 41.3 µM; on SphK2, above 100 µM.
For `CCCCCCCCCCCCCC[C@@H]1CC[C@H](N)[C@@H]1O` [4b, (1R,2S,5R)-2-Amino-5-tetradecylcyclopentan-1-ol], the IC50 on SphK1 turned out to be 7.5 µM; against SphK2, 20.1 µM.
For `CCCCCCCCCCCCCC[C@@H]1OC[C@H](N)[C@@H]1O` [compound 1, pachastrissamine] the same measures were 12 µM and 41.8 µM.
